Test results from patent publication US11999806B2, “Broad-spectrum polypeptide against enterovirus and application thereof” (WUHAN INSTITUTE OF VIROLOGY, CHINESE ACADEMY OF SCIENCES, priority 2018, dated 2024).
“And” between values parts separate entries of the source, which are not always exact repeats. Equal entries are not always repeated. Where two headings read alike, the source gives them in different places. Non-standard residues stand in square brackets, D forms with d. Residues, ends and D or L forms follow the SMILES beside them. No end group written: not given here.

What was measured:
RD cells = assay: Cytotoxicity by CCK-8 in RD cells; format: cell-based; settings: RD cells; for Cell viability (%): 24 h; for cytotoxicity, result in words: CCK-8, 24 h
[1] = Cytotoxicity by CCK-8 in RD cells; format: cell-based; settings: human, RD cells; for viability at 24 h, 0.46875 µM / viability at 24 h, 2.34375 µM / viability at 24 h, 4.6875 µM / viability at 24 h, 9.375 µM / viability at 24 h, 18.75 µM / viability at 24 h, 37.5 µM / viability at 24 h, 75 µM / viability at 24 h, 150 µM / viability at 24 h, 300 µM: read-out: Cell viability (%); for CC50 at 24 h: CCK-8, 24 h, Example 15, read-out: 50% cytotoxic concentration (CC50)
CVA16 = format: cell-based, Coxsackievirus A16; settings: CCK-8; for Virus inhibition rate (%): CVA16, RD cells, 24 h; for IC50: read-out: IC50 against CVA16

Molecule | Cell viability (%) (RD cells; 0.46875 μM) | Cell viability (%) (RD cells; 2.34375 μM) | Cell viability (%) (RD cells; 4.6875 μM) | Cell viability (%) (RD cells; 9.375 μM) | Cell viability (%) (RD cells; 18.75 μM) | Cell viability (%) (RD cells; 37.5 μM) | Cell viability (%) (RD cells; 75 μM) | Cell viability (%) (RD cells; 150 μM) | Cell viability (%) (RD cells; 300 μM) | cytotoxicity, result in words (RD cells) | viability at 24 h, 0.46875 µM [1] | viability at 24 h, 2.34375 µM [1] | viability at 24 h, 4.6875 µM [1] | viability at 24 h, 9.375 µM [1] | viability at 24 h, 18.75 µM [1] | viability at 24 h, 37.5 µM [1] | viability at 24 h, 75 µM [1] | viability at 24 h, 150 µM [1] | viability at 24 h, 300 µM [1] | CC50 at 24 h [1] | other results
CC(=O)N[C@H](CCCNC(=N)N)C(=O)N[C@H](CS)C(=O)N[C@H](Cc1ccc(O)cc1)C(=O)N[C@H](CCC(N)=O)C(=O)N[C@H](CCCNC(=N)N)C(=O)N[C@@H](C(=O)N[C@H](CCC(=O)O)C(=O)N[C@H](CCC(=O)O)C(=O)N1CCC[C@@H]1C(=O)N1CCC[C@@H]1C(=O)N[C@H](CCCNC(=N)N)C(=O)N[C@H](CCCNC(=N)N)C(=O)N[C@H](CCCNC(=N)N)C(=O)N[C@H](CCC(N)=O)C(=O)N[C@H](CCCNC(=N)N)C(=O)N[C@H](CCCNC(=N)N)C(=O)N[C@H](CCCCN)C(=O)N[C@H](CCCCN)C(=O)N[C@H](CCCNC(=N)N)C(=O)NCC(=O)N[C@H](Cc1ccc(O)cc1)C(N)=O)C(C)C [ER-DRI] (Ac-[dR][dC][dY][dQ][dR][dV][dE][dE][dP][dP][dR][dR][dR][dQ][dR][dR][dK][dK][dR]G[dY]-NH2) | 100.2% and 99.28% | 98.83% and 96.33% | 98.51% and 97.63% | 96.79% and 94.15% | 91.14% and 89.01% | 86.77% and 86.97% | 70.42% and 71.95% | 34.62% and 34.08% | 17.58% and 18.69% | very low toxicity | 103% | 104% | 101% | 96% | 95.8% | 86% | 68.9% | 34% | 18.2% | 117 µM | Virus inhibition rate (%) (CVA16; 0.15625 μM): 7.885% and 3.667% and 8.802%; Virus inhibition rate (%) (CVA16; 0.3125 μM): 12.1% and 11.19% and 21.45%; Virus inhibition rate (%) (CVA16; 0.625 μM): 15.77% and 13.75% and 27.14%; Virus inhibition rate (%) (CVA16; 1.25 μM): 59.05% and 58.86% and 50.79%; Virus inhibition rate (%) (CVA16; 2.5 μM): 93.52% and 84.17% and 77.93%; Virus inhibition rate (%) (CVA16; 5 μM): 104.7% and 107.3% and 106.2%; effect on CVA16, in words (CVA16; RD cells): can significantly inhibit CVA16; IC50 (CVA16; RD cells): 0.856 µM
YGRKKRRQRRRGSGEEVRQYCR [ER] | 99.34% and 100% | 98.07% and 102.7% | 100.8% and 103.1% | 98.48% and 102.4% | 96.59% and 98.47% | 95.69% and 92.24% | 89.79% and 90.36% | 74.32% and 76.72% | 43.39% and 48.41% | very low toxicity | 99.9% | 98.6% | 99.1% | 98.5% | 99% | 94.8% | 89.7% | 72.9% | 42.2% | 290 µM | IC50 (CVA16; RD cells): 3.21 µM
